Measured values reported in patent US7524821B2, “Scaffolded maleimide clusters for multivalent peptide assembly” (priority 2002, dated 2009).
Like-named read-outs stand apart in the source and are kept apart here.

How the values were obtained:
[1] = Circular dichroism (CD) spectroscopy, α-helix content; format: physicochemical; conditions: based on [θ]222 and proposed formula, 50 mM phosphate buffer pH 7.4
Protocol: FIG. 11. CD spectra of the MVP-1 and DP178. The spectra were recorded with 10 uM of DP178 and 2.5 uM of MVP-1 in a phosphate buffer (50 mM, pH 7.4) at 23° C.
One application of the scaffolds is to induce special conformations of peptides. The circular dichroism (CD) spectra of the synthetic multivalent gp41 peptide (MVP-1) and peptide DP178 were recorded and compared (FIG. 11). It was shown that the multivalent assembling has a significant impact on the peptide conformation, leading to a great increase of the α-helical content for the peptide. […]
Similarly, we measured the circular dichroism (CD) spectra of the cholic acid-based multivalent peptides (36a and 37b). […]
The UV absorbance was run on Beckman DU 640 spectrophotometer. CD's spectrums were measured on Jasco-810 (CD-ORD) spectropolarimeter using quartz cuvette of 1 mm path length. […]
The samples of tetravalent peptide 26, trivalent peptides 36a and 37b, template 3α, 7α, 12α-tri-(6-Amino-3-thia-hexy-oxyl)-24-hydroxyl-5β-cholane 32, and the single peptide DP178 were prepared in a concentration ranging from 2 to 18 μM in 50 mM phosphate buffer (pH 7.4). The exact concentration of each sample was detected by UV spectrometer just prior to CD measurement. […]

[2] = Native gel filtration (aggregation); format: physicochemical; conditions: PBS, pH 7.2, 0.5 mM
Text: Accordingly, the tetravalent gp41 peptides 25 and 26, each of which contains 4 strands of the 36-mer HIV-1 gp41 peptide DP178 (T20) were synthesized (FIG. 7). […] In order to ligate the peptide to the maleimide cluster, a cysteine residue was introduced at the C-terminus of the peptide during solid phase peptide synthesis.

[3] = aqueous buffer pH 7.0; cited from earlier work
HIV-1 = conditions: laboratory-adapted strains and primary isolates / different strains of HIV, cited from earlier work

For enfuvirtide, the “content of α-helix” value [1] is given as 18%, the “aggregation under native gel filtration” value [2] is given as “form aggregates” and the “concentration at which monomer/tetramer equilibrium and other aggregation patterns occur” value [3] is given as “above 20 μM”. The “concentration at which peptide is monomeric” value [3] was “below 10 μM”, the “inhibition of HIV membrane fusion” value (HIV-1) was “potent and broadly inhibitory activities” and the “inhibition of HIV membrane fusion” value (HIV-1; listed as T20) was “potently inhibit”.
